Peptide text beside a SMILES is read from it.
Key:
CRF1R = target: T1, CRF1R (Homo sapiens, UniProt P34998); experiment: CRF1R agonist activation (EC50 / Emax), called comparative CRF binding; format: cell-based; details: read-out: CRF1R Emax
T1 sequence (P34998 24-415): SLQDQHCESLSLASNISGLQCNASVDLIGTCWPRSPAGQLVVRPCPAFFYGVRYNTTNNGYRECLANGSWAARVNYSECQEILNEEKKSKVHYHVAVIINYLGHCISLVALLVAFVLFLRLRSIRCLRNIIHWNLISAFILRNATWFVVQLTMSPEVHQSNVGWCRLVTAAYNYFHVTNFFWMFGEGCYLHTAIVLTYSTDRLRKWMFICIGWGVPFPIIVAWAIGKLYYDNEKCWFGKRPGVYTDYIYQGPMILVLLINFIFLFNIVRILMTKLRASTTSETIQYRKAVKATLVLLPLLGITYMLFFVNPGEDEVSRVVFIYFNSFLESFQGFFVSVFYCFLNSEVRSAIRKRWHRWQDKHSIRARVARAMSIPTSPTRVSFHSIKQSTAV
Method in brief: (§1)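 Cells expressing full-length human CRF1R or CRF2R were exposed to peptide or vehicle control, and receptor activation was gauged as cAMP induction. cAMP was measured in cell lysates or via a cAMP-responsive element driving a reporter gene such as luciferase, CAT, GFP or alkaline phosphatase.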

CRF2R = target: T2, CRF2R (Homo sapiens, UniProt Q13324); experiment: CRF2R agonist activation (EC50 / Emax), called comparative CRF binding; format: cell-based; details: read-out: CRF2R Emax
T2 sequence (Q13324 1-411): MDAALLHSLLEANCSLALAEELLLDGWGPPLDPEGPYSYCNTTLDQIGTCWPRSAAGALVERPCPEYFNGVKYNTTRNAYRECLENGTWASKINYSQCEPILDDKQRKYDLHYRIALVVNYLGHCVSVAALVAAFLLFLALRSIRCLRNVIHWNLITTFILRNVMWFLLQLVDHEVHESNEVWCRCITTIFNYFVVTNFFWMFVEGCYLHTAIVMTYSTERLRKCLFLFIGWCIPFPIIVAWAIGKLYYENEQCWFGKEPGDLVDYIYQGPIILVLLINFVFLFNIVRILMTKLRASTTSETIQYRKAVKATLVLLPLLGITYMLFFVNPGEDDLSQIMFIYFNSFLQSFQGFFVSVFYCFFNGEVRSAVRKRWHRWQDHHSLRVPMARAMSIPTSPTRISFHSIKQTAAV
Method in brief: as §1

SMILES	Emax (CRF1R) [%]	Emax (CRF2R) [%]
CC[C@H](C)[C@H](N)C(=O)N[C@H](C(=O)N[C@@H](CC(C)C)C(=O)N[C@@H](CO)C(=O)N[C@@H](CC(C)C)C(=O)N[C@@H](CC(=O)O)C(=O)N[C@H](C(=O)N1CCC[C@H]1C(=O)N[C@H](C(=O)NCC(=O)N[C@@H](CC(C)C)C(=O)N[C@@H](CC(C)C)C(=O)N[C@@H](CCC(N)=O)C(=O)N[C@H](C(=O)N[C@@H](CC(C)C)C(=O)N[C@@H](CC(C)C)C(=O)N[C@@H](CCC(=O)O)C(=O)N[C@@H](CCC(N)=O)C(=O)N[C@@H](C)C(=O)N[C@@H](CCCNC(=N)N)C(=O)N[C@@H](C)C(=O)N[C@@H](C)C(=O)N[C@@H](C)C(=O)N[C@@H](CCCNC(=N)N)C(=O)N[C@@H](CCC(=O)O)C(=O)N[C@@H](CCC(N)=O)C(=O)N[C@@H](C)C(=O)N[C@H](C(=O)N[C@H](C(=O)N[C@@H](CC(N)=O)C(=O)N[C@@H](C)C(=O)N[C@@H](CCCNC(=N)N)C(=O)N[C@H](C(=O)N[C@@H](CC(C)C)C(=O)N[C@@H](C)C(=O)N[C@@H](CCCNC(=N)N)C(=O)N[C@H](C(N)=O)C(C)C)[C@@H](C)CC)[C@@H](C)O)[C@@H](C)O)[C@@H](C)CC)[C@@H](C)CC)C(C)C)C(C)C [compound 141] (H-IVLSLDVPIGLLQILLEQARAAAREQATTNARILARV-NH2)	7	29
CC[C@H](C)[C@H](N)C(=O)N[C@H](C(=O)N[C@@H](CC(C)C)C(=O)N[C@@H](CO)C(=O)N[C@@H](CC(C)C)C(=O)N[C@@H](CC(=O)O)C(=O)N[C@H](C(=O)N1CCC[C@H]1C(=O)N[C@H](C(=O)NCC(=O)N[C@@H](CC(C)C)C(=O)N[C@@H](CC(C)C)C(=O)N[C@@H](CCC(N)=O)C(=O)N[C@H](C(=O)N[C@@H](CC(C)C)C(=O)N[C@H](C(=O)N[C@@H](CCC(=O)O)C(=O)N[C@H](C(=O)N[C@@H](CCC(=O)O)C(=O)N[C@@H](CCCCN)C(=O)N[C@@H](CCC(N)=O)C(=O)N[C@@H](CCC(=O)O)C(=O)N[C@@H](CCCCN)C(=O)N[C@@H](CCC(=O)O)C(=O)N[C@@H](CCCCN)C(=O)N[C@@H](CCC(N)=O)C(=O)N[C@@H](CCC(N)=O)C(=O)N[C@@H](C)C(=O)N[C@@H](C)C(=O)N[C@@H](CC(N)=O)C(=O)N[C@@H](CC(N)=O)C(=O)N[C@@H](CCCNC(=N)N)C(=O)N[C@@H](CC(C)C)C(=O)N[C@@H](CC(C)C)C(=O)N[C@@H](CC(C)C)C(=O)N[C@@H](CC(=O)O)C(=O)N[C@H](C(=O)N[C@H](C(N)=O)[C@@H](C)CC)[C@@H](C)O)[C@@H](C)CC)[C@@H](C)CC)[C@@H](C)CC)[C@@H](C)CC)C(C)C)C(C)C [compound 154] (H-IVLSLDVPIGLLQILIEIEKQEKEKQQAANNRLLLDTI-NH2; N-terminus assumed)	7	100
CC[C@H](C)[C@H](N)C(=O)N[C@H](C(=O)N[C@@H](CC(C)C)C(=O)N[C@@H](CO)C(=O)N[C@@H](CC(C)C)C(=O)N[C@@H](CC(=O)O)C(=O)N[C@H](C(=O)N1CCC[C@H]1C(=O)N[C@H](C(=O)NCC(=O)N[C@@H](CC(C)C)C(=O)N[C@@H](CC(C)C)C(=O)N[C@@H](CCC(N)=O)C(=O)N[C@H](C(=O)N[C@@H](CC(C)C)C(=O)N[C@@H](CC(C)C)C(=O)N[C@@H](CCC(=O)O)C(=O)N[C@@H](CCSC)C(=O)N[C@H](C(=O)N[C@@H](CCCCN)C(=O)N[C@@H](C)C(=O)N[C@@H](CC(=O)O)C(=O)N[C@@H](CCC(N)=O)C(=O)N[C@@H](CC(C)C)C(=O)N[C@@H](C)C(=O)N[C@@H](CCC(N)=O)C(=O)N[C@@H](CCC(N)=O)C(=O)N[C@@H](C)C(=O)N[C@@H](Cc1c[nH]cn1)C(=O)N[C@@H](CO)C(=O)N[C@@H](CC(N)=O)C(=O)N[C@@H](CCCNC(=N)N)C(=O)N[C@@H](CCCCN)C(=O)N[C@@H](CC(C)C)C(=O)N[C@@H](CC(C)C)C(=O)N[C@@H](CC(=O)O)C(=O)N[C@H](C(=O)N[C@@H](C)C(N)=O)[C@@H](C)CC)[C@@H](C)O)[C@@H](C)CC)[C@@H](C)CC)C(C)C)C(C)C [compound 155] (H-IVLSLDVPIGLLQILLEMTKADQLAQQAHSNRKLLDIA-NH2; N-terminus assumed)	16	94
CC[C@H](C)[C@H](N)C(=O)N[C@H](C(=O)N[C@@H](CC(C)C)C(=O)N[C@@H](CO)C(=O)N[C@@H](CC(C)C)C(=O)N[C@@H](CC(=O)O)C(=O)N[C@H](C(=O)N1CCC[C@H]1C(=O)N[C@H](C(=O)NCC(=O)N[C@@H](CC(C)C)C(=O)N[C@@H](CC(C)C)C(=O)N[C@@H](CCC(N)=O)C(=O)N[C@H](C(=O)N[C@@H](CC(C)C)C(=O)N[C@@H](CC(C)C)C(=O)N[C@@H](CCC(=O)O)C(=O)N[C@H](C(=O)N[C@@H](CCC(=O)O)C(=O)N[C@@H](CCCCN)C(=O)N[C@@H](CCC(N)=O)C(=O)N[C@@H](CCC(=O)O)C(=O)N[C@@H](CCCCN)C(=O)N[C@@H](CCC(=O)O)C(=O)N[C@@H](CCCCN)C(=O)N[C@@H](CCC(N)=O)C(=O)N[C@@H](CCC(N)=O)C(=O)N[C@@H](C)C(=O)N[C@@H](C)C(=O)N[C@@H](CC(N)=O)C(=O)N[C@@H](CC(N)=O)C(=O)N[C@@H](CCCNC(=N)N)C(=O)N[C@@H](CC(C)C)C(=O)N[C@@H](CC(C)C)C(=O)N[C@@H](CC(C)C)C(=O)N[C@@H](CC(=O)O)C(=O)N[C@H](C(=O)N[C@H](C(N)=O)[C@@H](C)CC)[C@@H](C)O)[C@@H](C)CC)[C@@H](C)CC)[C@@H](C)CC)C(C)C)C(C)C [compound 158] (H-IVLSLDVPIGLLQILLEIEKQEKEKQQAANNRLLLDTI-NH2)	15	89
CC[C@H](C)[C@H](N)C(=O)N[C@H](C(=O)N[C@@H](CC(C)C)C(=O)N[C@@H](CO)C(=O)N[C@@H](CC(C)C)C(=O)N[C@@H](CC(=O)O)C(=O)N[C@H](C(=O)N1CCC[C@H]1C(=O)N[C@H](C(=O)NCC(=O)N[C@@H](CC(C)C)C(=O)N[C@@H](CC(C)C)C(=O)N[C@@H](CCC(N)=O)C(=O)N[C@H](C(=O)N[C@@H](CC(C)C)C(=O)N[C@@H](CC(C)C)C(=O)N[C@@H](CCC(=O)O)C(=O)N[C@@H](CCC(N)=O)C(=O)N[C@H](C(=O)N[C@@H](CCCCN)C(=O)N[C@@H](C)C(=O)N[C@@H](CC(=O)O)C(=O)N[C@@H](CCC(N)=O)C(=O)N[C@@H](CC(C)C)C(=O)N[C@@H](C)C(=O)N[C@@H](CCC(N)=O)C(=O)N[C@@H](CCC(N)=O)C(=O)N[C@@H](C)C(=O)N[C@@H](Cc1c[nH]cn1)C(=O)N[C@@H](CO)C(=O)N[C@@H](CC(N)=O)C(=O)N[C@@H](CCCNC(=N)N)C(=O)N[C@@H](CCCCN)C(=O)N[C@@H](CC(C)C)C(=O)N[C@@H](CC(C)C)C(=O)N[C@@H](CC(=O)O)C(=O)N[C@H](C(=O)N[C@@H](C)C(N)=O)[C@@H](C)CC)[C@@H](C)O)[C@@H](C)CC)[C@@H](C)CC)C(C)C)C(C)C [compound 159] (H-IVLSLDVPIGLLQILLEQTKADQLAQQAHSNRKLLDIA-NH2; N-terminus assumed)	9	62
CC[C@H](C)[C@H](N)C(=O)N[C@H](C(=O)N[C@@H](CC(C)C)C(=O)N[C@@H](CO)C(=O)N[C@@H](CC(C)C)C(=O)N[C@@H](CC(=O)O)C(=O)N[C@H](C(=O)N1CCC[C@H]1C(=O)N[C@H](C(=O)NCC(=O)N[C@@H](CC(C)C)C(=O)N[C@@H](CC(C)C)C(=O)N[C@@H](CCC(N)=O)C(=O)N[C@H](C(=O)N[C@@H](CC(C)C)C(=O)N[C@@H](CC(C)C)C(=O)N[C@@H](CCC(=O)O)C(=O)N[C@@H](CC(C)C)C(=O)N[C@@H](C)C(=O)N[C@@H](CCCNC(=N)N)C(=O)N[C@H](C(=O)N[C@@H](CCC(N)=O)C(=O)N[C@@H](CO)C(=O)N[C@@H](CCC(N)=O)C(=O)N[C@@H](CCCNC(=N)N)C(=O)N[C@@H](CCC(=O)O)C(=O)N[C@@H](CCCNC(=N)N)C(=O)N[C@@H](C)C(=O)N[C@@H](CCC(=O)O)C(=O)N[C@@H](CCC(N)=O)C(=O)N[C@@H](CC(N)=O)C(=O)N[C@@H](CCCNC(=N)N)C(=O)N[C@H](C(=O)N[C@H](C(=O)N[C@@H](Cc1ccccc1)C(=O)N[C@@H](CC(=O)O)C(=O)N[C@@H](CO)C(=O)N[C@H](C(N)=O)C(C)C)[C@@H](C)CC)[C@@H](C)CC)[C@@H](C)O)[C@@H](C)O)[C@@H](C)CC)C(C)C)C(C)C [compound 160] (H-IVLSLDVPIGLLQTLLELARTQSQRERAEQNRIIFDSV-NH2; N-terminus assumed)	10	87
